“And” between values parts separate entries of the source, which are not always exact repeats. Identical values can stand only once.
Key:
Format in all cases: in vivo
[1] = system: mouse Ehrlich Ascites Cancer (EAC) solid tumor; experiment: Effects of oral administration of the compound powder on mouse Ehrlich Ascites Cancer (EAC) solid tumor; conditions: Dosage 0.2 ml/10 g × 9
Protocol: (§1) A suspension of 10% was prepared from the traditional Chinese medicine compound powder provided by the present invention and then stored in a refrigerator. The suspension would be shaken up before use. Tumor strain: Heps, S180 and ESC were all commercially available products. Animal: Kunming mice provided by the animal laboratories of Shenyang Pharmaceutical University and China Pharmaceutical University. Method: referring to the following literatures: Literature 1: chief editor Xu Shuyun. Methodology of Pharmacological Experiment, Beijing: People's Medical Publishing House 1982, 1115-1125. Literature 2: China Academic Conference on Tumor Pharmacology and Chemotherapy: In-vivo Efficacy Test Procedures of Anticancer Drugs, internal data. 1989. 3. Effects of the Traditional Chinese Medicine Compound Powder on ESC Solid Tumor […]

[2] = system: mouse transplantable Heps solid tumor; experiment: Effects of oral administration of the compound powder on mouse Heps solid tumor; conditions: for Inhibition rate / Tumor weight (g) (X ± SD): mouse Heps solid tumor; for Weight (g) Beginning: body weight at beginning; for Weight (g) Beginning / Weight (g) End: Heps; for Weight (g) End: body weight at end
Protocol: as §1, with “1989. 1.” for “1989. 3.”, “on Heps” for “on ESC”

[3] = system: mouse transplantable S180 solid tumor; experiment: Effects of oral administration of the compound powder on mouse S180 solid tumor; conditions: Dosage 0.2 ml/10 g × 9
Protocol: as §1, with “1989. 2.” for “1989. 3.”, “on S180” for “on ESC”

O=c1[nH]cc(F)c(=O)[nH]1 [0.15% 5-Fu, 5-Fu]
Inhibition rate ([1]; mouse EAC solid tumor): 64.85% and 66.85% and 65.36% | Tumor weight (g) (X ± SD) ([1]; mouse EAC solid tumor): 1.23 ± 0.43 g and 1.31 ± 0.65 g and 1.33 ± 0.63 g | Weight (g) Beginning ([1]; body weight at beginning, EAC): 20.90 g and 21.45 g and 20.85 g | Weight (g) End ([1]; body weight at end, EAC): 26.80 g and 22.20 g and 26.90 g | Inhibition rate ([2]; Dosage 0.1 ml/10 g × 8): 65.75% and 56.62% | Tumor weight (g) (X ± SD) ([2]; Dosage 0.1 ml/10 g × 8): 1.12 ± 0.85 g and 0.59 ± 0.27 g | Inhibition rate ([2]; Dosage 0.1 ml/10 g × 9): 58.55% | Tumor weight (g) (X ± SD) ([2]; Dosage 0.1 ml/10 g × 9): 1.05 ± 0.54 g | Weight (g) Beginning ([2]; Dosage 0.1 ml/10 g × 8): 21.30 g and 18.95 g | Weight (g) Beginning ([2]; Dosage 0.1 ml/10 g × 9): 21.00 g | Weight (g) End ([2]; Dosage 0.1 ml/10 g × 8): 24.80 g and 20.22 g | Weight (g) End ([2]; Dosage 0.1 ml/10 g × 9): 25.86 g | Inhibition rate ([3]; mouse S180 solid tumor): 61.80% and 60.53% and 42.62% | Tumor weight (g) (X ± SD) ([3]; mouse S180 solid tumor): 1.36 ± 0.44 g and 1.33 ± 0.31 g and 1.87 ± 1.03 g | Weight (g) Beginning ([3]; body weight at beginning, S180): 21.80 g and 21.30 g and 20.78 g | Weight (g) End ([3]; body weight at end, S180): 24.70 g and 23.60 g and 20.00 g

— patent US10987389B2, “Anti-tumor traditional Chinese medicine microbial fermentation preparation and a preparation method and application thereof” (priority 2014, dated 2021)
